{
  "source": "paper PMC3423427",
  "about": "“Design and Synthesis of Potent N-Acylethanolamine-hydrolyzing Acid Amidase (NAAA) Inhibitor as Anti-Inflammatory Compounds” (PLoS ONE, 2012)",
  "key": {"[1]": {"settings": "80% rat plasma, 37°C", "procedure": "In terms of the biological stability test, rat plasma was usually chosen as reference in vitro model for drug stability studies, [20], [21]. The hydrolysis of compound 16 was studied in 80% rat plasma at 37°C physiological condition."}, "[2]": {"target": "T1, monoacylglycerol lipase (MGL) (Homo sapiens, UniProt Q99685)", "T1 sequence (Q99685 1-303)": "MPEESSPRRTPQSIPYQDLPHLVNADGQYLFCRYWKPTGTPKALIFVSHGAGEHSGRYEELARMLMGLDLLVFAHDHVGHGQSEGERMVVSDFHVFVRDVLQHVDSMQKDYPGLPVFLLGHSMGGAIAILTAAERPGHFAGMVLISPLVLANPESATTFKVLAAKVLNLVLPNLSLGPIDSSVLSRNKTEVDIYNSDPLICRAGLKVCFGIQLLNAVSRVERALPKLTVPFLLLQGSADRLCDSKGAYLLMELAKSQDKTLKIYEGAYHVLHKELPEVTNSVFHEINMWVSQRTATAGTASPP", "assay": "MGL activity assay (Figure S1)", "type": "biochemical", "settings": "100 µM (Figure S1)", "procedure": "Supplementary file pone.0043023.s001.pdf: Figure S1 Effect of vehicle (open bar) and compound 16 (100 µM, closed bars) on the activity of NAAA, FAAH, MGL, and ASAH. ***, p<0.001, one-way ANOVA, n = 3. (PDF) Click here for additional data file."}, "NAAA [3]": {"target": "T2, NAAA (Rattus norvegicus, UniProt Q5KTC7)", "T2 sequence (Q5KTC7 34-362)": "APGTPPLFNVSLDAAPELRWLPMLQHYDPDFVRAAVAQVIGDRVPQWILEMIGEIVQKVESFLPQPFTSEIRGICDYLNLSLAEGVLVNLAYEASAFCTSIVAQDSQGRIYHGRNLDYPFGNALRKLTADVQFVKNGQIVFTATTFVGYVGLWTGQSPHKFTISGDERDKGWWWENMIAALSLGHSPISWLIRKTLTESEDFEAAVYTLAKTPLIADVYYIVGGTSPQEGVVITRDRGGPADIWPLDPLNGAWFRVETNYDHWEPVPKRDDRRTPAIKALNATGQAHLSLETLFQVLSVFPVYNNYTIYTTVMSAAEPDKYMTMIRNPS", "assay": "Dialysis NAAA assay", "type": "biochemical", "design": "made in house; host or cells: HEK293 cells stably overexpressing rat NAAA (HEK293-rNAAA), a gift from D. Piomelli; crude 800 x g supernatant of sonicated cells", "settings": "8 hr dialysis", "procedure": "Dialysis assay was performed using Slide-A-Lyzer Dialysis Cassettes (Pierce, Shanghai, China). Briefly, 2 mg NAAA protein was incubated with compound 16 or dimethyl sulfoxide (DMSO) in 4 mL Tris-HCl buffer (50 mM, pH 5.0) for 10 minutes at 37°C. Mixed reaction solution was loaded onto a dialysis cartridge using a syringe and incubated in Tris-HCl buffer (50 mM, pH 5.0) at 4°C for 8 h. The samples were removed from Dialysis Cassettes by syringes for NAAA enzymatic assay."}, "RAW264.7 cells": {"system": "RAW264.7 cells", "procedure": "(§1) HEK293 cells overexpressing rat NAAA (HEK293-rNAAA) and rat FAAH (HEK293-rFAAH) were kind gifts from Dr. Daniele Piomelli in University of California, Irvine. The stable-overexpressing cell lines were maintained in Dulbecco’s Modified Eagle Medium (DMEM, Hyclone, Beijing, China) supplemented with 10% FBS (Gibco®, Shanghai, China) containing 0.3 mg/mL G418. Mouse macrophage cells RAW264.7 and Human Embryonic Kidney cell HEK293 cells were purchased from American Type Culture Collection (ATCC, Beijing, China) and maintained in DMEM supplemented with 10% FBS in humidified 5% CO2 atmosphere at 37°C. RAW264.7 cells were plated and cultured overnight until 80% confluence and then incubated with a series of compound 16 of different concentrations for 30 min before challenged by LPS.\nThe column temperature was set at 40°C."}, "NAAA [4]": {"target": "T2, NAAA", "assay": "Rapid dilution NAAA assay", "type": "biochemical", "design": "made in house; host or cells: HEK293 cells stably overexpressing rat NAAA (HEK293-rNAAA), a gift from D. Piomelli; crude 800 x g supernatant of sonicated cells", "settings": "pre-incubation 10-fold IC50, 100-fold dilution", "procedure": "Rapid dilution assay was performed as previously described. Briefly, samples containing 100-fold concentrated rNAAA recombinant protein were pre-incubated with 10-fold the IC50-equivalent concentration of compound 16 or vehicle (1% DMSO) for 10 min at 37°C. Samples were then diluted 100-fold with assay buffer containing substrate to initiate reactions, and the time course of product formation was measured by LC/MS."}, "rat NAAA": {"target": "T3, rat NAAA (Rattus norvegicus, UniProt Q5KTC7)", "T3 construct": "made in house; host or cells: HEK293 cells stably overexpressing rat NAAA (HEK293-rNAAA), a gift from D. Piomelli; crude 800 x g supernatant of sonicated cells", "T3 sequence (Q5KTC7 34-362)": "T2 sequence (Q5KTC7 34-362)", "assay": "NAAA enzymatic assay (recombinant rNAAA protein, LC/MS)", "type": "biochemical", "settings": "IC50 ± S.E.M., triplicate; 25 µM heptadecenoylethanolamide, pH 5.0", "description": "HEK293-rNAAA or HEK293-rFAAH cells were harvested, washed with PBS, sonicated in 20 mM Tris-HCl (pH 7.5) containing 0.32 M sucrose, and centrifuged at 800 × g for 15 min at 4°C. The supernatants were collected and protein concentrations were measured by BCA protein assay kit (Pierce, Shanghai, China). […] The reactions were terminated by adding 0.2 mL methanol containing 1 nmol heptadecanoic acid and analyzed in LC/MS.\nWe use an Agilent 1200-LC system coupled to a 3200Q TRAP-MS detector equipped with an ESI interface (Agilent Technologies, Shanghai, China). […] The column temperature was set at 40°C. […] Mass spectrometer (MS) detection was ionized by positive-ion atmospheric pressure chemical ionization mode (APCI^+) and monitored in MRM mode. […] Quantifications were calculated at chromatographic peak areas by using Analyst® version 1.4.1. software (Applied Biosystems)."}, "NAAA [5]": {"target": "T2, NAAA", "assay": "NAAA activity in intact HEK293 cells overexpressing NAAA", "type": "cell-based", "settings": "10 µM, 8 hr", "procedure": "as §1"}, "[6]": {"settings": "24 hr", "procedure": "To evaluate the biological and chemical stability of compound 16, we determined the degradation products of compound 16 in different chemical environments, as well as in rat plasma. First, chemical hydrolysis was evaluated at various pHs, i.e. pH 1.0 and pH 13.0. The hydrolytic product, biphenylpropanoic acid, if any, was detected by thin layer chromatography (TLC) after 24 hr incubation with 0.1 M HCl (pH 1.0) or […] (pH 13.0). […] Second, to test whether compound 16 was sensitive to thermal challenge, we placed compound 16 in 80°C incubator for 24 hr."}, "NAAA [7]": {"target": "T2, NAAA", "description": "HEK293-rNAAA or HEK293-rFAAH cells were harvested, washed with PBS, sonicated in 20 mM Tris-HCl (pH 7.5) containing 0.32 M sucrose, and centrifuged at 800 × g for 15 min at 4°C. The supernatants were collected and protein concentrations were measured by BCA protein assay kit (Pierce, Shanghai, China). NAAA activity was measured by incubating 30 µg recombinant rNAAA protein with testing compound at 37°C for 30 min in 0.2 mL phosphate buffer (50 mM, pH 5.0) containing 0.1% Triton X-100, 3 mM DTT, and 25 µM heptadecenoylethanolamide as substrate. […] The reactions were terminated by adding 0.2 mL methanol containing 1 nmol heptadecanoic acid and analyzed in LC/MS."}},
  "note": "Like-named read-outs stand apart in the source and are kept apart here.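 For IC50 in this document: reaction product measured by LC/MS using positive APCI ionization with MRM monitoring, quantified from chromatographic peak areas.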",
  "data": [
    {"smiles": "O=C(CCc1ccc(-c2ccccc2)cc1)N1CCCC1", "note": "[Compound 16, 1–(2–Biphenyl–4–yl)ethyl–carbonyl pyrrolidine]", "values": [
      {"measurement": "compound remaining, Rat Serum 8h", "setting": "[1]", "value": 89, "unit": "%"},
      {"measurement": "compound remaining, Rat Serum 8h", "setting": "[1]; listed as compound 16", "value": 89, "unit": "%"},
      {"measurement": "compound remaining, Rat Serum 16h", "setting": "[1]", "value": 64, "unit": "%"},
      {"measurement": "compound remaining, Rat Serum 16h", "setting": "[1]; listed as compound 16", "value": 64, "unit": "%"},
      {"measurement": "inhibitory effect on MGL", "setting": "[2]", "value": "no inhibitory effect"},
      {"measurement": "NAAA activity after dialysis of inhibitor-NAAA complex", "setting": "NAAA [3]", "value": "almost completely restored the NAAA activity"},
      {"measurement": "cellular PEA levels, LPS+compound", "setting": "RAW264.7 cells; RAW264.7, 0.5 µg/mL LPS, LPS alone 0.67±0.12", "value": "1.41±0.17", "unit": "pmol/mg protein"},
      {"measurement": "cellular PEA levels, compound alone", "setting": "RAW264.7 cells; RAW264.7, no LPS, vehicle 1.23±0.07", "value": "1.30±0.23", "unit": "pmol/mg protein"},
      {"measurement": "NAAA activity after rapid dilution of inhibitor-NAAA complex", "setting": "NAAA [4]", "value": "almost completely restored the NAAA activity"},
      {"measurement": "IC50", "setting": "rat NAAA", "value": "2.12 ± 0.41", "unit": "µM"},
      {"measurement": "inhibition on NAAA activity in intact cells", "setting": "NAAA [5]", "value": "more than 60%"},
      {"measurement": "stability, 0.1M HCl", "setting": "[6]; 0.1 M HCl (pH 1.0)", "value": 100, "unit": "%"},
      {"measurement": "hydrolytic product on TLC, acidic medium", "setting": "[6]; 0.1 M HCl (pH 1.0), TLC EtOAc/PE 1:2", "value": "no detectable biphenylpropanoic acid"},
      {"measurement": "hydrolytic product on TLC, basic medium", "setting": "[6]; 0.1 M NaCl (pH 13.0) as printed, TLC EtOAc/PE 1:2", "value": "no detectable biphenylpropanoic acid"},
      {"measurement": "stability, 80°C", "setting": "[6]; 80°C incubator", "value": 100, "unit": "%"},
      {"measurement": "degradation products on TLC after thermal challenge", "setting": "[6]; 80°C, TLC EtOAc/PE 1:2", "value": "no trace of biphenylpropanoic acid or other corresponding residuals"},
      {"measurement": "stability, 0.1NaOH", "setting": "[6]; basic medium (pH 13.0)", "value": 100, "unit": "%"},
      {"measurement": "Vmax of NAAA activity", "setting": "NAAA [7]; 5µM compound 16, […], n = 3", "value": "5854 ± 511", "unit": "pmol/min/mg"},
      {"measurement": "mode of NAAA inhibition", "setting": "NAAA [7]; rapid dilution, dialysis and kinetic analysis", "value": "reversible and competitive"},
      {"measurement": "Km", "setting": "NAAA [7]; read-out: Michaelis-Menten constant Km, 5µM compound 16, […]", "value": "328 ± 98", "unit": "µM"},
      {"measurement": "Ki", "setting": "NAAA [7]; read-out: dissociation constant Ki, calculated from Km (inhibitor) = Km (1+[I]/Ki)", "value": 5.65, "unit": "µM"}
    ]}
  ]
}
